Measured values from US8084448B2, “Organic compounds” (Novartis AG, priority 2006, dated 2011).
Where a name gives a salt, the structure may show the parent alone.

Row | SMILES | melting point
1 | O=C1CN(c2ccc(-c3ccoc3)cc2O)S(=O)(=O)N1 (as salt: potassium) [Example 272, 5-(4-Furan-3-yl-2-hydroxyphenyl)-1,1-dioxo-1,2,5-thiadiazolidin-3-one] | 230 to 235 °C
2 | O=C1CN(c2ccc(OCCc3ccccc3)cc2O)S(=O)(=O)N1 [Example 55, 5-(2-Hydroxy-4-phenethyloxyphenyl)-1,1-dioxo-1,2,5-thiadiazolidin-3-one] | 65 to 70 °C
3 | COC(=O)c1c(O)cccc1OCCCCNC(=O)CCc1ccc(N2CC(=O)NS2(=O)=O)c(O)c1 [Example 110, 2-Hydroxy-6-(4-{3-[3-hydroxy-4-(1,1,4-trioxo-1,2,5-thiadiazolidin-2-yl)-phenyl]-propionylamino}-butoxy)-benzoic Acid Methyl Ester] | 85 to 90 °C

Next, values leading:

Row | melting point | SMILES
4 | 185 to 188 °C | O=C(O)COc1ccc(N2CC(=O)NS2(=O)=O)c(O)c1 [Example 296, [3-Hydroxy-4-(1,1,4-trioxo-1,2,5-thiadiazolidin-2-yl)-phenoxy]-acetic Acid]
5 | 126 to 180 °C | O=C1CN(c2ccc(S(=O)(=O)c3ccccc3)cc2O)S(=O)(=O)N1 [Example 318, 5-(4-Benzenesulfonyl-2-hydroxyphenyl)-1,1-dioxo-1,2,5-thiadiazolidin-3-one]
